From US20140051729A1, “COMPOSITIONS AND METHODS FOR TREATING DEGENERATIVE MUSCLE CONDITIONS” (University of Washington, priority 2011, published 2014)

What was measured:
[1] = test system: Dystrophic mutant flies (TubGal4:UAS-Dys^C-RNAi/+); test: Myofibril Projectin immunohistochemistry in dystrophic flies after oral THI; assay type: in vivo, Drosophila melanogaster; conditions: 3 days once-daily oral THI, myofibrils from 10 day old flies
Experimental: In mice, the genetic reduction of S1P lyase activity can be phenocopied pharmacologically by the delivery of the small molecule 1-[5-[(1R,2S,3R)-1,2,3,4-tetrahydroxybutyl]-1H-imidazol-2-yl]-ethanone (THI), which inhibits the activity of S1P lyase. Dystrophic mutant flies were administered THI to investigate possible THI suppression of the muscle degeneration phenotype.
Flies were dipped in 95% EtOH and then dissected in 1×PBS (pH 7.4). Heads and abdomens were removed, and the thoraxes opened. Samples were stained using a modified ovary staining protocol 3. Samples were then fixed in 5% paraformaldehyde (Electron Microscopy Sciences) for 1 hour, rinsed in PBT (PBS/0.2% Triton X-100 v/v) 4 times, and then blocked for 1 hour in PBTB (PBT, 0.4% BSA w/v, 5% Normal Goat Serum v/v) at room temperature. Samples were stained in primary antibody pre-diluted in PBTB (Phalloidin-Alexa-Fluor 568, Invitrogen [mouse, 1:200]; Projectin (Mac150), Babraham Institute [rat, 1:50]) overnight at 4° C., rinsed in PBT 4 times at room temperature (RT), and then stained with secondary antibody pre-diluted in PBTB (Alexa Fluor 488 [mouse, 1:500]) overnight at 4° C. […] For each genotype, 4-5 flies were analyzed, and 6-7 muscles per fly were analyzed. […]

S1P level = test: S1P levels in tissues of CTX injured mdx mice after IP THI; assay type: in vivo, mouse; conditions: 5-month-old mdx males, IP THI 5 times during 3 days, day 4 post CTX, vs vehicle
Experimental: (a) Experimental schematic of THI (0.075 μg/day) and PBS (vehicle) treated mdx mice injected intraperitoneally (IP) twice daily for the first 72 hours following cardiotoxin (CTX) injury. Muscles, spleen or plasma from 5MO (n=6) mdx males were harvested for S1P and creatin kinase (CK) analysis at day 4 post CTX injury. Muscles from aged mdx mice (n=7 THI treated: 3 11MO females, 4 16MO males. n=6 vehicle: 3 11MO females, 3 16MO males) were harvested for histopathology analysis 18 days post CTX injury. […] (d) Quantification of Picrosirius Red staining indicates reduced fibrosis following injury in both Tibialis Anterior (TA) and Quadriceps (Quads) muscles in mice treated with THI. […] Scale bars=50 μm. (f) Oil Red-O staining depicts fat deposits (arrows) over the entire cross-sectional area of THI treated and control injured TAs. […] Error bars represent SEM.
The effects of THI in the dystrophic mdx mouse model were studied. […] THI was administered intraperitoneally (IP) to three groups of mdx mice. Right tibialis anterior (TA) and quadriceps muscles were uninjured, while left counterparts were injured using CTX, a well characterized model of acute injury where initial muscle destruction is followed by a rapid myogenic response. […] The effects of THI administration on the plasma creatine kinase (CK) activity level was also measured.

## CC(=O)c1ncc([C@@H](O)[C@H](O)[C@H](O)CO)[nH]1 [THI, 1-[5-[(1R,2S,3R)-1,2,3,4-tetrahydroxybutyl]-1H-imidazol-2-yl]-ethanone]
[1]
  suppression of muscle wasting (myofibrils): significant suppression of muscle wasting
S1P level
  S1P level in CTX injured quadriceps: significantly increased
  S1P level in spleen tissue: significantly increased
